Key:
[1] = system: Hep3B cell line expressing TM4SF5; assay: qRT-PCR of CCL20 and CXCL10 mRNA in IL-6-treated Hep3B cell line; type: cell-based, human; conditions: IL-6 100 ng/ml, TSAHC 0.1 or 0.5 μM for 24 hours
Description: Hep3B cell line expressing TM4SF5 that was not treated with IL-6 or treated at a concentration of 100 ng/ml was treated with or without TSAHC at a concentration of 0.1 or 0.5 μM for 24 hours. Then, qRT-PCR was performed using the cells.
Specifically, to perform qRT-PCR, the cells or tissues were disrupted using Qiazol (Qiagen, USA), to which chloroform was added, and the upper […] layer was separated by centrifugation at 4° C., 12,000×g for 15 minutes. RNA was precipitated by adding isopropanol to the separated […] layer, followed by washing with 70% ethanol. RNA pellet was isolated by centrifugation at 7,500×g for 5 minutes, ethanol was evaporated for 10 minutes, and dissolved in 30 μl of DEPC-water. After removing gDNA from the dissolved RNA, it was reverse transcribed using a reverse transcription kit (Toyobo, Japan) to obtain cDNA. The expression was measured by real-time PCR (Biorad, USA) with the obtained cDNA using 2×Eva green master mix (Labopass, Korea) and 0.4 μM forward/reverse primers. The expression amount was calculated using the modified delta-delta Ct method of Pfaffl.

TM4SF5 and IL6-Rα = molecular target: T1, TM4SF5 and IL6-Rα (Homo sapiens, UniProt O14894); assay: Binding of TM4SF5 and IL6-Rα (streptavidin-agarose precipitation, Western blotting); type: cell-based; conditions: hepatic epithelial cells expressing TM4SF5-Strep; FIG. 10
T1 construct: expressed in transfected cells
T1 sequence (O14894 1-197): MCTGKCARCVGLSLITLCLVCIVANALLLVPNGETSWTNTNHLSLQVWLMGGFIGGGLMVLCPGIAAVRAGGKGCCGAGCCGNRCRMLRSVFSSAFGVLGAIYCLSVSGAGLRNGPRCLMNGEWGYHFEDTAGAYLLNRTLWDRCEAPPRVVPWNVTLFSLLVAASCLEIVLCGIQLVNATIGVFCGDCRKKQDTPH
Description: Hepatic epithelial cells were infected with an empty vector (EV) or lentivirus expressing TM4SF5, and TSAHC was not treated (−) or treated (+) thereto. A cell extract was obtained, and TM4SF5-Strep was precipitated using strepavidin-agarose beads, and then Western blotting was performed with the IL-6 receptor, IL-6Rα antibody.

[2] = system: cell lines expressing TM4SF5; assay: qRT-PCR of M1-type macrophage chemokines/cytokines CCL2, TNF-α, IL-6, IL-1β; type: cell-based; conditions: cell line expressing TM4SF5, LPS and IFN-γ
Description: Cell lines not expressing TM4SF5 (EV) or cell lines expressing thereof (TM4SF5) were treated (+) or not treated with LPS and IFN-γ, treated (+) or not treated with 2-DG (2-Deoxy-D-glucose) as a drug for inhibiting glycolysis at a given concentration, and additionally treated (+) or not treated with TSAHC (−). Then, the mRNA expression levels of CCL2, TNF-α, IL-6, and IL-1β, the chemokines/cytokines indicating the activation of M1-type macrophages, were confirmed by qRT-PCR.

cells expressing TM4SF5 = assay: Activation of glycolytic function (acidification of extracellular solution, Seahorse); type: cell-based
Description: The cells expressing TM4SF5 were treated with vehicle, a negative control compound (4′-methoxy-4-dihydroxychalcone) or TSAHC. Then, the degree of activation of glycolytic function was measured by measuring the acidification of the extracellular solution due to glycolysis while additionally adding glucose at various concentrations using Seahorse equipment.

[3] = system: SNU449-TM4SF5-HA cell line; assay: RNA-Seq / mRNA-Seq of inflammatory cytokine and chemokine expression in TM4SF5-expressing hepatic epithelial cells; type: cell-based, human; conditions: 10 μM TSAHC for 24 hours
Description: To confirm whether the TSAHC treatment affects the expression and secretion of inflammatory cytokines and chemokines in TM4SF5 expression-dependent hepatic epithelial cells, RNA-Seq analysis and mRNA-Seq analysis comparing the mRNA expression were performed in SNU449-HA cell line in which the control vector was safely injected into SNU449, SNU449-TM4SF5-HA cell line injected with TM4SF5 expression vector, and SNU449-TM4SF5-HA cell line treated with 10 μM of TSAHC for 24 hours using the liver tissue of Tg^TM4SF5 overexpressing TM4SF5 or Tm4sf5^−/− KO C57BL/6 mice in Macrogen, Inc. (Seoul, Korea).
The experimental procedure for mRNA-Seq analysis included the followings. […] RNA library was constructed through qPCR using an agilent technologies 2100 bioanalyzer according to qPCR quantification protocol guide. Quality control analysis of the raw reads obtained through sequencing was performed. […] Aligned reads were generated after mapping the pre-treated reads to reference genome using HISAT2 program considering splice. Transcript assembly was performed through the String Tie program using paired information of the aligned reads based on the reference. The expression level obtained through the transcript quantification of each sample was calculated as a normalization value considering the transcript length and depth of coverage. […]

[4] = system: mouse model in which liver fibrosis is induced by the treatment of CCl4; assay: CCl4-induced liver damage, inflammation and fibrosis mouse model with TSAHC treatment; type: in vivo; conditions: CCl4-treated mice, 4 weeks
Description: In a mouse animal model that can be accompanied by cell damage and inflammation when liver fibrosis is induced by the treatment of CCl4, the animal groups periodically treated (+) or not treated (−) with TSAHC during the CCl4 treatment were obtained. The body weight during 4 weeks of the treatment and the liver tissue weight after 4 weeks were calculated as a ratio (liver/body weight), or the ALT liver levels were measured from blood samples. The liver tissue was obtained and Tm4sf5 mRNA was measured by qRT-PCR.
In an animal model treated with CCl4 to induce liver fibrosis, the animal groups periodically treated (+) or not treated (−) with TSAHC during the CCl4 treatment were obtained. After 4 weeks of the treatment, the liver tissue was obtained and H&E and Masson's trichrome staining was performed.
In an animal model treated with CCl4 to induce liver fibrosis, the animal groups periodically treated (+) or not treated (−) with TSAHC during the CCl4 treatment were obtained. After 4 weeks of the treatment, the liver tissue was obtained and immunostaining was performed for Ccl20 and Cxcl10.
(§1) In a mouse model that can be accompanied by cell damage and inflammation when liver fibrosis is induced by CCl4 treatment, the animal groups periodically treated (+) or not treated (−) with TSAHC during the CCl4 treatment were obtained. After 4 weeks of the treatment, the liver tissue was obtained and immunostaining was performed for F4/80, a macrophage marker.
as §1, with “α-SMA indicating the activation of hepatic stellate cells.” for “F4/80, a macrophage marker.”

binding of TM4SF5 and IL6-Rα (TM4SF5 and IL6-Rα): inhibited
Compound: Cc1ccc(S(=O)(=O)Nc2ccc(C(=O)/C=C/c3ccc(O)cc3)cc2)cc1 [TSAHC, 4′-(p-toluenesulfonylamido)-4-hydroxychalcone]
CCL20 mRNA expression level increased by IL-6 ([1]; FIG. 4A): reduced | CXCL10 mRNA expression level increased by IL-6 ([1]; FIG. 4B): reduced | CCL2 mRNA expression level ([2]; FIG. 11A): decreased | TNF-α mRNA expression level ([2]; FIG. 11B): decreased | IL-6 mRNA expression level ([2]; FIG. 11C): decreased | IL-1β mRNA expression level ([2]; FIG. 11D): decreased | glycolysis of the cells not expressing TM4SF5 (EV) (cells expressing TM4SF5; EV cell line, FIG. 8B): not changed | glycolytic function of cells expressing TM4SF5 (cells expressing TM4SF5; various concentrations of glucose added, FIG. 8C): decreased | expression and secretion of cytokines/chemokines (IL6, IL1β, TNFα, CXCL1, CXCL2, CXCL3, CXCL6, CXCL8, CCL2, CCL5, CCL20, CXCL10, CCR10) according to TM4SF5 expression [3]: suppressed | Tm4sf5 mRNA expression level in liver tissue ([4]; FIG. 19A): decreased | liver tissue weight and body weight (ratio liver/body weight) ([4]; FIG. 19C): decreased | collagen accumulation (Masson's trichrome staining) ([4]; FIG. 20): decreased | degree of liver tissue damage / irregular cell composition (H&E staining) ([4]; FIG. 20): decreased | Ccl20 mRNA expression level in liver tissue ([4]; FIG. 21): decreased | Cxcl10 mRNA expression level in liver tissue ([4]; FIG. 21): decreased | F4/80 mRNA expression in liver tissue ([4]; FIG. 22B): decreased | α-SMA mRNA expression in liver tissue ([4]; FIG. 23B): decreased | ALT level ([4]; blood samples, FIG. 19B): decreased

— patent US12064405B2, “Immunosuppressant comprising TSAHC or a pharmaceutically acceptable salts thereof as an active ingredient” (Seoul National University R&DB Foundation, priority 2020, dated 2024)
